Data reported in patent US8129369B2, “Antifungal compounds containing benzothiazinone, benzoxazinone or benzoxazolinone and process thereof” (Council of Scientific & Industrial Research;, priority 2008, dated 2012).
≈ marks a conversion by molar mass, not a printed value.

Columns and labels:
C. albicans ATCC 24433 = assay: MIC by broth macro-dilution method, C. albicans ATCC 24433; type: cell-based, Candida albicans; conditions: 48 hours; for MIC: Candida albicans, ATCC24433, RPMI 1640 with MOPS, MIC = concentration exhibiting 80% inhibition vs positive growth control
Description: (§1) The compounds of Formula 1 were tested for antifungal activity against various fungi including Candida albicans, Aspergillus niger and Fusarium proliferatum. In vitro evaluation of antifungal activity was performed by determining the minimum inhibitory concentration (MIC) following standard methods (CLSI: Reference method for broth dilution antifungal susceptibility testing of yeasts; Approved standard, second edition M27-A2, 2002; CLSI: Reference method for broth dilution antifungal susceptibility testing of filamentous fungi; Approved standard M38-A, 2002). Anti-fungal susceptibility testing of these anti-fungal compounds was done by broth dilution method using RPMI 1640 medium with MOPS buffer. Known anti-fungal agents like Fluconazole and Amphotericin-B were used as standards. End points were determined after 48 hours visually and by using spectrophotometer wherever necessary.
(§2) >16 μg/ml: The novel compounds of formula 1 are generally tested for concentration range from 0.03 μg/ml to the concentration till it was in solution (For e.g.: Back precipitation 128-32 μg/ml, Concentration for assay: 0.03 to 16 μg/ml).

A. niger ATCC 16404 = assay: MIC by broth macro-dilution method, A. niger ATCC 16404; type: cell-based, Aspergillus niger; conditions: 48 hours; for MIC: Aspergillus niger, ATCC16404, RPMI 1640 with MOPS, MIC = concentration exhibiting 80% inhibition vs positive growth control
Description: as §1, §2

[1] = tested on: F. proliferatum ATCC 10052; assay: MIC by broth macro-dilution method, F. proliferatum ATCC 10052; type: cell-based, Fusarium proliferatum; conditions: 48 hours; for MIC: Fusarium proliferatum, ATCC10052, RPMI 1640 with MOPS, MIC = concentration exhibiting 80% inhibition vs positive growth control
Description: as §1, §2

C. albicans ATCC24433 = assay: MIC by broth micro-dilution method, C. albicans ATCC24433; type: cell-based, Candida albicans; conditions: for MIC: Candida albicans, ATCC24433, MIC = concentration exhibiting 50% inhibition vs positive control
Description: as §1

C. albicans ATCC10231 = assay: MIC by broth micro-dilution method, C. albicans ATCC10231; type: cell-based, Candida albicans; conditions: for MIC: Candida albicans, ATCC10231, MIC = concentration exhibiting 50% inhibition vs positive control
Description: as §1

C. albicans ATCC2091 = assay: MIC by broth micro-dilution method, C. albicans ATCC2091; type: cell-based, Candida albicans; conditions: for MIC: Candida albicans, ATCC2091, MIC = concentration exhibiting 50% inhibition vs positive control
Description: as §1

C. albicans ATCC90028 = assay: MIC by broth micro-dilution method, C. albicans ATCC90028; type: cell-based, Candida albicans; conditions: for MIC: Candida albicans, ATCC90028, MIC = concentration exhibiting 50% inhibition vs positive control
Description: as §1

C. glabrata ATCC90030 = assay: MIC by broth micro-dilution method, C. glabrata ATCC90030; type: cell-based; conditions: for MIC: Nakaseomyces glabratus, ATCC90030, MIC = concentration exhibiting 50% inhibition vs positive control
Description: as §1

C. krusei ATCC6258 = assay: MIC by broth micro-dilution method, C. krusei ATCC6258; type: cell-based; conditions: for MIC: Pichia kudriavzevii, ATCC6258, MIC = concentration exhibiting 50% inhibition vs positive control
Description: as §1

C. tropicalis ATCC750 = assay: MIC by broth micro-dilution method, C. tropicalis ATCC750; type: cell-based; conditions: for MIC: Candida tropicalis, ATCC750, MIC = concentration exhibiting 50% inhibition vs positive control
Description: as §1

[2] = RPMI 1640 with MOPS, MIC = concentration exhibiting complete inhibition (Amphotericin B)
[3] = MIC = concentration exhibiting complete inhibition (Amphotericin B)

Row | MIC (C. albicans ATCC 24433) | MIC (A. niger ATCC 16404) | MIC [1] | Compound | other results
1 | > 64 µg/mL | > 64 µg/mL | > 64 µg/mL | CC(=O)c1ccc2c(c1)N(CC(O)(Cn1cncn1)c1ccc(F)cc1F)C(=O)CO2 (stereo not shown) [Compound 1m, 6-Acetyl-4-[2-(2,4-difluorophenyl)-2-hydroxy-3-[1,2,4]-triazol-1-yl-propyl]-4H-benzo[1,4]oxazin-3-one] | –
2 | 2 µg/mL (≈ 4.8 µM) | > 32 µg/mL | > 32 µg/mL | Cc1ccc2c(c1)SCC(=O)N2CC(O)(Cn1cncn1)c1ccc(F)cc1F (stereo not shown) [Compound 1e, 4-[2-(2,4-Difluorophenyl)-2-hydroxy-3-[1,2,4]triazol-1-yl-propyl]-7-methyl-4H-benzo[1,4]thiazin-3-one] | –
3 | 8 µg/mL (≈ 19 µM) | > 32 µg/mL | > 32 µg/mL | O=C1COc2ccc(Cl)cc2N1CC(O)(Cn1cncn1)c1ccc(F)cc1F (stereo not shown) [Compound 1j, 6-Chloro-4-[2-(2,4-difluorophenyl)-2-hydroxy-3-[1,2,4]triazol-1-yl-propyl]-4H-benzo[1,4]oxazin-3-one] | –
4 | 4 µg/mL (≈ 9.25 µM) | > 32 µg/mL | > 32 µg/mL | COc1ccc2c(c1)SCC(=O)N2CC(O)(Cn1cncn1)c1ccc(F)cc1F (stereo not shown) [Compound 1d, 4-[2-(2,4-Difluorophenyl)-2-hydroxy-3-[1,2,4]triazol-1-yl-propyl]-7-methoxy-4H-benzo[1,4]thiazin-3-one] | –
5 | 4 µg/mL (≈ 8.63 µM) | > 16 µg/mL | > 16 µg/mL | O=C1COc2ccc(Cl)cc2N1CC(O)(Cn1cncn1)c1ccc(Br)cc1 (stereo not shown) [Compound 1n, 4-[2-(4-Bromophenyl)-2-hydroxy-3-[1,2,4]-triazol-1-yl-propyl]-6-chloro-4H-benzo[1,4]oxazin-3-one] | –
6 | 32 µg/mL (≈ 74.2 µM) | > 32 µg/mL | > 32 µg/mL | O=C1COc2ccc([N+](=O)[O-])cc2N1CC(O)(Cn1cncn1)c1ccc(F)cc1F (stereo not shown) [Compound 1l, 4-[2-(2,4-Difluorophenyl)-2-hydroxy-3-[1,2,4]triazol-1-yl-propyl]-6-nitro-4H-benzo[1,4]oxazin-3-one] | –
7 | 0.5 µg/mL (≈ 1.29 µM) | > 64 µg/mL | > 64 µg/mL | O=C1COc2ccccc2N1CC(O)(Cn1cncn1)c1ccc(F)cc1F (stereo not shown) [Compound 1i, 4-[2-(2,4-Difluorophenyl)-2-hydroxy-3-[1,2,4]-triazol-1-yl-propyl]-4H-benzo[1,4]oxazin-3-one] | MIC (C. albicans ATCC24433): 0.12 µg/mL (≈ 0.311 µM); MIC (C. albicans ATCC10231): 0.5 µg/mL (≈ 1.29 µM); MIC (C. albicans ATCC2091): 4 µg/mL (≈ 10.4 µM); MIC (C. albicans ATCC90028): 0.12 µg/mL (≈ 0.311 µM); MIC (C. glabrata ATCC90030): 0.25 µg/mL (≈ 0.647 µM); MIC (C. krusei ATCC6258): 16 µg/mL (≈ 41.4 µM); MIC (C. tropicalis ATCC750): 2 µg/mL (≈ 5.18 µM)
8 | 1 µg/mL (≈ 2.29 µM) | > 16 µg/mL | > 16 µg/mL | O=C1CSc2cc(Cl)ccc2N1CC(O)(Cn1cncn1)c1ccc(F)cc1F (stereo not shown) [Compound 1b, 7-Chloro-4-[2-(2,4-difluorophenyl)-2-hydroxy-3-[1,2,4]-triazol-1-yl-propyl]-4H-benzo[1,4]thiazin-3-one] | –
9 | 16 µg/mL (≈ 34.4 µM) | > 32 µg/mL | > 32 µg/mL | O=C1COc2ccc(Br)cc2N1CC(O)(Cn1cncn1)c1ccc(F)cc1F (stereo not shown) [Compound 1k, 6-Bromo-4-[2-(2,4-difluorophenyl)-2-hydroxy-3-[1,2,4]triazol-1-yl-propyl]-4H-benzo[1,4]oxazin-3-one] | –
10 | 1 µg/mL (≈ 2.08 µM) | > 16 µg/mL | > 16 µg/mL | O=C1CSc2cc(Br)ccc2N1CC(O)(Cn1cncn1)c1ccc(F)cc1F (stereo not shown) [Compound 1c, 7-Bromo-4-[2-(2,4-difluorophenyl)-2-hydroxy-3-[1,2,4]triazol-1-yl-propyl]-4H-benzo[1,4]thiazin-3-one] | –

Further lines, the molecule ahead of its results:

Row | Compound | MIC (C. albicans ATCC 24433) | MIC (A. niger ATCC 16404) | MIC [1] | other results
11 | O=C1CSc2ccccc2N1CC(O)(Cn1cncn1)c1ccc(F)cc1F (stereo not shown) [Compound 1a, 4-[2-(2,4-Difluorophenyl)-2-hydroxy-3-[1,2,4]triazol-1-yl-propyl]-4H-benzo[1,4]thiazin-3-one] | 0.25 µg/mL (≈ 0.621 µM) | > 64 µg/mL | > 64 µg/mL | MIC (C. albicans ATCC24433): 0.03 µg/mL (≈ 0.0745 µM); MIC (C. albicans ATCC10231): 0.12 µg/mL (≈ 0.298 µM); MIC (C. albicans ATCC2091): 2 µg/mL (≈ 4.97 µM); MIC (C. albicans ATCC90028): 0.03 µg/mL (≈ 0.0745 µM); MIC (C. glabrata ATCC90030): 0.06 µg/mL (≈ 0.149 µM); MIC (C. krusei ATCC6258): 4 µg/mL (≈ 9.94 µM); MIC (C. tropicalis ATCC750): 0.5 µg/mL (≈ 1.24 µM)
12 | O=C1CSc2cc(Cl)ccc2N1CC(O)(Cn1cncn1)c1ccc(F)cc1 (stereo not shown) [Compound 1f, 7-Chloro-4-[2-(4-fluorophenyl)-2-hydroxy-3-[1,2,4]-triazol-1-yl-propyl]-4H-benzo[1,4]thiazin-3-one] | 2 µg/mL (≈ 4.77 µM) | > 16 µg/mL | > 16 µg/mL | –
13 | O=c1oc2ccccc2n1CC(O)(Cn1cncn1)c1ccc(F)cc1F (stereo not shown) [Compound 1q, 3-[2-(2,4-Difluorophenyl)-2-hydroxy-3-[1,2,4]triazol-1-yl-propyl]-3H-benzoxazolin-2-one] | 2 µg/mL (≈ 5.37 µM) | > 128 µg/mL | > 128 µg/mL | –
14 | COc1ccc2c(c1)SCC(=O)N2CC(O)(Cn1cncn1)c1ccc(Br)cc1 (stereo not shown) [Compound 1g, 4-[2-(4-Bromophenyl)-2-hydroxy-3-[1,2,4]triazol-1-yl-propyl]-7-methoxy-4H-benzo[1,4]thiazin-3-one] | 2 µg/mL (≈ 4.21 µM) | > 16 µg/mL | > 16 µg/mL | –
15 | CC(=O)c1ccc2c(c1)N(CC(O)(Cn1cncn1)c1ccc(Br)cc1)C(=O)CO2 (stereo not shown) [Compound 1p, 6-Acetyl-4-[2-(4-bromophenyl)-2-hydroxy-3-[1,2,4]triazol-1-yl-propyl]-4H-benzo[1,4]oxazin-3-one] | 32 µg/mL (≈ 67.9 µM) | > 32 µg/mL | > 32 µg/mL | –
16 | COc1ccc2c(c1)SCC(=O)N2CC(O)(Cn1cncn1)c1ccc(F)cc1 (stereo not shown) [Compound 1h, 4-[2-(4-Fluorophenyl)-2-hydroxy-3-[1,2,4]triazol-1-yl-propyl]-7-methoxy-4H-benzo[1,4]thiazin-3-one] | 8 µg/mL (≈ 19.3 µM) | > 16 µg/mL | > 16 µg/mL | –
17 | OC(Cn1cncn1)(Cn1cncn1)c1ccc(F)cc1F [Fluconazole, reference compound] | 1 µg/mL (≈ 3.27 µM) | 128 µg/mL (≈ 418 µM) | > 128 µg/mL | MIC (C. albicans ATCC24433): 0.25 µg/mL (≈ 0.816 µM); MIC (C. albicans ATCC10231): 1 µg/mL (≈ 3.27 µM); MIC (C. albicans ATCC2091): 4 µg/mL (≈ 13.1 µM); MIC (C. albicans ATCC90028): 0.5 µg/mL (≈ 1.63 µM); MIC (C. glabrata ATCC90030): 4 µg/mL (≈ 13.1 µM); MIC (C. krusei ATCC6258): 64 µg/mL (≈ 209 µM); MIC (C. tropicalis ATCC750): 2 µg/mL (≈ 6.53 µM)
18 | C[C@@H]1[C@H](O)[C@@H](C)/C=C/C=C/C=C/C=C/C=C/C=C/C=C/[C@H](O[C@@H]2O[C@H](C)[C@@H](O)[C@H](N)[C@@H]2O)C[C@@H]2O[C@](O)(C[C@@H](O)C[C@@H](O)[C@H](O)CC[C@@H](O)C[C@@H](O)CC(=O)O[C@H]1C)C[C@H](O)[C@H]2C(=O)O [Amphotericin B, reference compound] | – | – | – | MIC C. albicans ATCC24433 (C. albicans ATCC 24433; [2]): 0.25 µg/mL (≈ 0.271 µM); MIC A. niger ATCC 16404 (A. niger ATCC 16404; [2]): 1 µg/mL (≈ 1.08 µM); MIC F. proliferatum ATCC 10052 [1, 2]: 2 µg/mL (≈ 2.16 µM); MIC C. albicans ATCC24433 (C. albicans ATCC24433; [3]): 0.25 µg/mL (≈ 0.271 µM); MIC C. albicans ATCC10231 (C. albicans ATCC10231; [3]): 0.5 µg/mL (≈ 0.541 µM); MIC C. albicans ATCC2091 (C. albicans ATCC2091; [3]): 0.5 µg/mL (≈ 0.541 µM); MIC C. albicans ATCC90028 (C. albicans ATCC90028; [3]): 0.5 µg/mL (≈ 0.541 µM); MIC C. glabrata ATCC90030 (C. glabrata ATCC90030; [3]): 0.25 µg/mL (≈ 0.271 µM); MIC C. krusei ATCC6258 (C. krusei ATCC6258; [3]): 0.5 µg/mL (≈ 0.541 µM); MIC C. tropicalis ATCC750 (C. tropicalis ATCC750; [3]): 0.5 µg/mL (≈ 0.541 µM)
